Experimental data from US6326395A, “Antifungal activity of dicationic molecules” (priority 1999, dated 2001).
Counter-ions that a name gives are not always drawn.

Assays:
Candida albicans = assay: in vitro antifungal susceptibility testing (MIC, MFC; broth macrodilution), Tables 1-7; format: cell-based
[1] = system: Torulopsis glabrata 142.91; assay: antifungal susceptibility testing (MIC, MFC), extended spectrum; format: cell-based; conditions: Nakaseomyces glabratus
From the text: (§1) Antifungal susceptibility testing for compounds set forth in Examples 1-20 is discussed hereinbelow. The fungi that were employed included two reference strains, C. neoformans var. neoformans H99 and C. albicans A39 and the following clinical isolates: (1) two strains of fluconazole-resistant C. neoformans var. neoformans (135.95 and 114.96); (2) two strains of C. neoformans var. gattii (119.95 and 114.95); (3) two strains of fluconazole-resistant C. albicans (102.96 and 103.96); and (4) one strain each of Torulopsis glabrata (142.91), Candida parapsilosis (111.96), Candida krusei (132.91), C. tropicalis (110.96), Candida lusitaniae (111.92), Fusarium solani (152.89), Aspergillus fumigatus (168.95), and Aspergillus flavus (112.96). Antifungal susceptibility testing was performed using an RPMI-1640 medium (Sigma Chemical Co., St. Louis, Mo.) with glutamine, without sodium bicarbonate, and buffered at pH 7.0 with 0.165 M morpholine-propanesulfonic acid (MOPS).
(§2) In vitro susceptibility testing in the form of Minimum Inhibitory Concentration (MIC) experiments were performed using the broth macrodilution method according to the recommendations of the National Committee for Clinical Laboratory Standards (see 1995 manual). The only difference compared to the standardized procedure was the choice of drug dilutions ranging from 100 to 0.09 μg/ml. Briefly, this procedure specifies an inoculum grown at 35° C. and adjusted to a concentration of 0.5-2.5×10^3 CFU/ml with an incubation of the test performed at 35° C. and reading at 48 hours for all yeasts except for C. neoformans which is interpreted at 72 hr.
(§3) Minimum Fungicidal Concentration (MFC) experiments were adapted from a method by McGinnis (McGinnis, M. R., (1980) "Susceptibility testing and bioassay procedure", p. 431, Academic Press, Inc., New York). Briefly, 10 μl aliquots from tubes with growth inhibition were plated onto Sabouraud agar plates. The lowest drug concentration that yielded three or fewer yeasts colonies was recorded as the MFC.
(§4) Antifungal susceptibility testing for compounds set forth in Examples 21-28 is discussed hereinbelow. […]
(§5) Minimum Fungicidal Concentration (MFC) experiments were adapted from a method by McGinnis (McGinnis, M. R., (1980) "Susceptibility testing and bioassay procedure", p.431, Academic Press, Inc., New York). […] The lowest drug concentration that yielded 3 or fewer yeasts colonies was recorded as the MFC. […]

C. tropicalis 110.96 = assay: as above; format: cell-based; conditions: Candida tropicalis
From the text: as §1, §2, §3, §4, §5

C. neoformans 114.96 = assay: as above; format: cell-based, C. neoformans var. neoformans; conditions: Cryptococcus neoformans, C. neoformans 114.96, fluconazole-resistant
From the text: as §1
as §2, with “The only difference compared to the standardized procedure was the choice of drug dilutions ranging from 100 to 0.09 μg/ml.” left out
as §5, with “p. 431,” for “p.431,”, “three” for “3”
as §5

C. krusei 132.91 = assay: as above; format: cell-based, Candida krusei; conditions: Pichia kudriavzevii
Description: Antifungal susceptibility testing for compounds set forth in Examples 1-20 is discussed hereinbelow. […]
as §2, with “The only difference compared to the standardized procedure was the choice of drug dilutions ranging from 100 to 0.09 μg/ml.” left out
as §5, with “p. 431,” for “p.431,”, “three” for “3”
as §5

MIC (Candida albicans; 35° C., reading at 48 hours, read-out: MIC80 (Minimum inhibitory concentration 80%)): 0.78 µg/mL
MIC ([1]; 48 hours, read-out: MIC80): 0.78 µg/mL
MIC (C. tropicalis 110.96; 48 hours, read-out: MIC80): 0.78 µg/mL
MIC (C. neoformans 114.96; 72 hr, read-out: MIC80): 0.78 µg/mL
MIC (C. krusei 132.91; 48 hours, read-out: MIC80): 0.78 µg/mL
Structure (SMILES): CC(C)NC(=N)c1ccc2nc(-c3ccc4c(c3)Cc3cc(-c5nc6ccc(C(=N)NC(C)C)cc6[nH]5)ccc3-4)[nH]c2c1 [Compound 57, 2,7-Bis[2-(5-N-isopropylamidino)benzimidazoyl]fluorene hydrochloride]
MFC (Candida albicans; three or fewer colonies, read-out: MFC (Minimum fungicidal concentration)): 1.56 µg/mL
MFC [1]: 0.78 µg/mL
MFC (C. tropicalis 110.96): 1.56 µg/mL
MFC (C. neoformans 114.96): 0.78 µg/mL
MFC (C. krusei 132.91): 0.78 µg/mL
